US20040259823A1, “Cationic amphiphiles as transfection vehicles” (priority 2001, published 2004)

Assays:
Format in all cases: cell-based
COS-7 and HepG2 cells [1] = experiment: Cell survival after transfection (cell line not given); details: cell line and helper lipid not given; for % surv / % surv mean: Table 11
Description: (§1) Transfections were carried out following standard protocols as is described in EP 0755924. In numerous publications variations of transfection protocols are given. A person acquainted with the field of non-viral transfections, in particular transfections using cationic amphiphiles will be able to use the cationic amphiphiles of the invention in transfection methods known per se. In standard experiments COS-7 cells are transfected with plasmid DNA containing the β-galactosidase reporter gene. Upon successful transfection the cell produces the enzyme β-galactosidase whose activity can be easily measured. Other plasmids comprising alternative reporter genes such as the gene encoding Green Fluorescent Protein or Chloroamphenicol Acetyl Transferase are suited as well. For analyzing stable transfection a plasmid containing the neomycin resistance gene can be used. Toxicity of the cationic amphiphiles towards the cells can be monitored qualitatively and quantitatively by visual inspection of the cells and by a protein determination.
(§2) COS-7 and HepG2 cells were cultured in Dulbecco's Modified Eagle Medium (DMEM Gibco The Netherlands) containing 7% of fetal calf serum, 2 mM L-Glutamine, 100 units/ml of penicilin and […] of streptomycin at 37° C. in CO2/air (1:19).
(§3) Cells (1×10^5 cells/well) were seeded in 12-well plates and were allowed to grow overnight.
(§4) The complex of cationic amphiphile/helper lipid (1:1) with pCMV GFP was prepared at the charge ratio 2.5:1 (15 nmol lipid and 1 μg DNA), in 100 μl 10 mM HEPES (pH=7.4, 150 mM NaCl). After 10-15 min incubation at room temperature, the resulting complex was diluted in 1 ml medium (DMEM) and 0.5 ml of the mixture was added to the cells and incubated for 4 h at 37° C. The transfection efficiency expressed as a percentage of GFP positive cells was measured by FACS (Fluorescence Activated Cell Soorting) 48 hours after the transfection.
(§5) Control wells underwent identical steps except that no cationic amphiphile was added.

COS-7 and HepG2 cells [2] = experiment: Toxicity towards the cells by protein determination versus control wells; details: protein determination compared with the reference value of control wells
Description: as §1, with “determination. Control wells underwent identical steps except that no cationic amphiphile was added.” for “determination.”

COS-7 and HepG2 cells [3] = experiment: Transfection with pCMV GFP plasmid, % GFP positive cells by FACS (cell line not given); details: cell line and helper lipid not given
Description: as §1
(§6) A solution of cationic amphiphile in a 50/50 molar ratio with DOPE, DOPC or cholesterol in chloroform was dried under a stream of nitrogen. The residual solvent was removed under vacuum. The lipid film was hydrated in water at room temperature and sonicated to clarity in a bath sonicator immediately before use.
(§7) A 4.7 kb pair plasmid containing the GFP reporter gene under control of the cytomegalovirus immediate early gene promoter/enhancer (pCMV GFP).DNA was isolated from E. coli using a Qiagen Plasmid Kit (QIAGEN Inc, USA). The plasmid concentration was determined by measuring the absoption at 260 nm using the relation 1.0 OD=50 μg/ml. The OD260/OD280 value was 1.95.
as §2, §3, §4, §5

HepG2 [4] = experiment: Transfection with pCMV GFP plasmid, % GFP positive cells by FACS (Table 3); details: HepG2, DOPE
Description: as §1, §6, §7, §2, §3, §4, §5

HepG2 [5] = experiment: Cell survival after transfection (Table 3); details: HepG2, DOPE; note: tested at 6.8 µM
Description: as §1, §2, §3, §4, §5
Throughout, for % surv mean: tested at 6.8 µM.

SMILES | % surv cells (COS-7 and HepG2 cells [1]; Table 4) | % surv cells (COS-7 and HepG2 cells [1]; Table 5) | % surv cells (COS-7 and HepG2 cells [1]; Table 6) | % surv (COS-7 and HepG2 cells [1]; first value) | % surv mean (COS-7 and HepG2 cells [1]) | % surv (COS-7 and HepG2 cells [1]; second value) | % TE (HepG2 [4]; first value) | % TE mean (HepG2 [4]) | % TE (HepG2 [4]; second value) | % surv cells (HepG2 [5]; first value) | % surv cells Mean (HepG2 [5]) | % surv cells (HepG2 [5]; second value) | % TE (COS-7 and HepG2 cells [3]; Table 4) | % TE (COS-7 and HepG2 cells [3]; Table 5) | % TE (COS-7 and HepG2 cells [3]; Table 6) | % TE (COS-7 and HepG2 cells [3]; Table 11, first value) | % TE mean (COS-7 and HepG2 cells [3]; Table 11) | % TE (COS-7 and HepG2 cells [3]; Table 11, second value) | also measured
CCCCCCCC/C=C\CCCCCCCCCc1cc[n+](CCCCCCCC/C=C\CCCCCCCC)cc1.[Cl-] [SF6, 1-(9′-cis-octadecenyl)-4-(10″-cis-nonadecenyl) pyridinium Chloride] | – | – | – | – | – | – | – | – | – | – | – | – | – | – | – | – | – | – | % surv cells (COS-7 and HepG2 cells [1]; Table 1): 75.3%; % surv cells (COS-7 and HepG2 cells [1]; Table 2): 47.3%; % surv cells (COS-7 and HepG2 cells [1]; Table 7): 84.06%; % surv cells (COS-7 and HepG2 cells [1]; Table 8): 57.21%; % surv cells (COS-7 and HepG2 cells [1]; Table 9): 70.01%; % surv cells (COS-7 and HepG2 cells [1]; Table 10): 61.57%; toxicity towards the cells (COS-7 and HepG2 cells [2]): marginal toxicity; % TE (COS-7 and HepG2 cells [3]; Table 1): 14.44%; % TE (COS-7 and HepG2 cells [3]; Table 2): 11.48%; % TE (COS-7 and HepG2 cells [3]; Table 7): 30.91%; % TE (COS-7 and HepG2 cells [3]; Table 8): 9.96%; % TE (COS-7 and HepG2 cells [3]; Table 9): 3.92%; % TE (COS-7 and HepG2 cells [3]; Table 10): 9.14%
CCCCCCCC/C=C\CCCCCCCC[n+]1ccc(CCCCCCCCCCC)cc1 [SF43, 1-(9′-cis-octadecenyl)-4-undecyl-pyridinium Chloride] | 68.12% | 85.51% | 86.86% | 85.42% | 84.395% | 83.37% | 5.71% | 5.805% | 5.9% | 52.11% | 53.845% | 55.58% | 9.18% | 0.55% | 10.22% | 24.6% | 24.2% | 23.8% | –
CCCCCCCC/C=C\CCCCCCCC[n+]1ccc(CCCCCCCCCCCCCCC)cc1.[Cl-] [SF44, 1-(9′-cis-octadecenyl)-4-pentadecyl-pyridinium Chloride] | 66.51% | 92.1% | 93.99% | 90.36% | 88.91% | 87.46% | 12.53% | 11.185% | 9.84% | 45.21% | 49.18% | 53.15% | 10.13% | 1.64% | 8.89% | 9.1% | 8.67% | 8.24% | –
CCCCCCCC/C=C\CCCCCCCC[n+]1ccc(CCCCCCCCCCCCCCCCC)cc1.[Cl-] [SF45, 1-(9′-cis-octadecenyl)-4-(heptadecyl) pyridinium Chloride] | 67.4% | 93.02% | 92.61% | 90.01% | 87.55% | 85.09% | 8.93% | 6.465% | 4% | 40.24% | 31.565% | 22.89% | 9.71% | 3.38% | 5.35% | 0.27% | 0.15% | 0.03% | –
CCCCCCCC/C=C\CCCCCCCCCc1cc[n+](CCCCCCCCCCCCCCCCCC)cc1.[Cl-] [SF46, 1-stearyl-4-(10′-cis-nonadecenyl)-pyridinium Chloride] | 72.57% | 76.34% | 93.55% | 87.02% | 87.02% | – | 11.65% | 9.07% | 6.49% | 16.79% | 15.445% | 14.1% | 9.17% | 2.71% | 1.11% | 10.6% | 10.6% | – | –
CCCCCCCCCCCCOC(=O)c1cc[n+](CCCCCCCCCCCC)cc1.[Cl-] [SF53, 1-dodecyl-4-(-carbo-(dodecyloxy)) pyridinium Chloride] | 65.91% | 91.6% | 91.74% | 84.51% | 84.51% | – | 2.13% | 2.13% | – | 37.51% | 37.51% | – | 9.04% | 0.71% | 0.56% | 6.67% | 6.67% | – | –
